#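 Method: 48-hour compound exposure of cells in 96-well plates, five concentrations, linear interpolation of endpoints. TGI marks complete inhibition of growth.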 Where a SMILES comes first, the peptide text is derived from it. [ ]: non-standard residue; d: D form. The star is where a group is joined. Phe(4-NO2) = N[CH](Cc1ccc([N+](=O)[O-])cc1)C(=O)O; Cbz = O=C(OCc1ccccc1)*
# Legend:
# Test in all cases: NCI-60 cell line screen, 48 h
# LXFL 529 NSCLC = tested on: LXFL 529 NSCLC
# RXF-631 renal = tested on: RXF-631 renal
# DLD-1 colon = tested on: DLD-1 colon
# DMS 114 small cell lung = tested on: DMS 114 small cell lung
# KM20L2 colon = tested on: KM20L2 colon
# XF 498 CNS = tested on: XF 498 CNS
# DMS 273 small cell lung = tested on: DMS 273 small cell lung
# M19-MEL melanoma = tested on: M19-MEL melanoma
# MDA-MB-231 breast = tested on: MDA-MB-231 breast
# SNB-78 CNS = tested on: SNB-78 CNS
# HOP-18 NSCLC = tested on: HOP-18 NSCLC
compound,measurement,setting,value
COc1ccc(C2=NC(CO)[C@H](c3ccccc3)O2)cc1OC (stereo partly drawn),TGI,LXFL 529 NSCLC,> 100 µM
same,TGI,RXF-631 renal,> 100 µM
same,TGI,DLD-1 colon,> 100 µM
same,TGI,DMS 114 small cell lung,> 100 µM
same,TGI,KM20L2 colon,> 100 µM
same,TGI,XF 498 CNS,> 100 µM
same,TGI,DMS 273 small cell lung,> 100 µM
same,TGI,M19-MEL melanoma,> 100 µM
Fc1nc(-c2c3ccccc3c3sc4ccccc4n23)nc(N2CCOCCOCCOCCOCC2)n1,TGI,MDA-MB-231 breast,> 100 µM
CCOC(=O)CCC(NC(=O)OCc1ccccc1)C(=O)NC(CCC(=O)OCC)C(=O)NC(CCC(=O)OCC)C(=O)NC(CCC(=O)OCC)C(=O)NC(CCC(=O)OCC)C(=O)NC(Cc1ccc([N+](=O)[O-])cc1)C(=O)NC(CCC(=O)OCC)C(=O)NC(CCC(=O)OCC)C(=O)NC(CCC(=O)OCC)C(=O)NC(CCC(=O)OCC)C(=O)NC(CCC(=O)OCC)C(=O)OCC (stereo not drawn) (Cbz-E(OEt)E(OEt)E(OEt)E(OEt)E(OEt)[Phe(4-NO2)]E(OEt)E(OEt)E(OEt)E(OEt)E(OEt)-OEt; configuration not given here),TGI,MDA-MB-231 breast,> 5 µM
COC(=O)C1=CCC[C@H]2[C@@]1(COC(C)=O)CC[C@@H](C)[C@]2(C)CC(=O)c1ccoc1,TGI,MDA-MB-231 breast,> 50 µM
CC(=O)O[C@H]1[C@@H](N2CCCCC2)C[C@H]2[C@@H]3CC=C4C[C@@H](N5CCCC5)CC[C@]4(C)[C@H]3CC[C@@]21C,TGI,MDA-MB-231 breast,> 100 µM
O=[N+]([O-])/C(C(Cl)=C(Cl)Cl)=C(\NCc1ccccc1)Sc1ccccc1,TGI,MDA-MB-231 breast,> 100 µM
CCN1C(c2ccccc2)=CC(c2ccccc2)(C(Cl)(Cl)Cl)C=C1c1ccccc1,TGI,MDA-MB-231 breast,> 100 µM
COc1ccc(-c2c(C#N)c(N)nc(Sc3ccccc3N)c2C#N)cc1,TGI,MDA-MB-231 breast,48.2 µM
c1ccc([P+](Cc2ccc(C[P+](c3ccccc3)(c3ccccc3)c3ccccc3)s2)(c2ccccc2)c2ccccc2)cc1,TGI,MDA-MB-231 breast,> 100 µM
O=C(N/N=C\c1ccc([N+](=O)[O-])cc1)Nc1ccc2ccccc2c1,TGI,MDA-MB-231 breast,63.8 µM
CSc1cc(Cl)c(C(=O)Nc2ccccc2)cc1S(=O)(=O)n1cc[nH]c1=O,TGI,MDA-MB-231 breast,> 100 µM
O=C(CC(=O)n1nc(-c2ccccc2)c(N=Nc2ccc([N+](=O)[O-])cc2)c1-c1ccccc1)Nc1ccc(Cl)cc1,TGI,LXFL 529 NSCLC,> 100 µM
same,TGI,RXF-631 renal,> 100 µM
same,TGI,DLD-1 colon,> 100 µM
same,TGI,DMS 114 small cell lung,48.8 µM
same,TGI,KM20L2 colon,24.9 µM
same,TGI,SNB-78 CNS,> 100 µM
same,TGI,XF 498 CNS,59.1 µM
same,TGI,HOP-18 NSCLC,> 100 µM
same,TGI,DMS 273 small cell lung,> 100 µM
same,TGI,M19-MEL melanoma,> 100 µM
C[C@]12CC/C(=N\OCCN3CCCC3)C=C1CCC1C2CC[C@@]2(C)C1CC[C@]2(C)O (stereo partly drawn),TGI,MDA-MB-231 breast,34 µM
CC1CCC2C(C(=O)O[C@H]3C4C=CO[C@@H](OC5OC(CO)C(O)C(O)C5O)C4[C@@]4(CO)O[C@@H]34)=CO[C@@H](OC3OC(CO)C(O)C(O)C3O)C12 (stereo partly drawn),TGI,MDA-MB-231 breast,> 10 µM
CSCCCNC(=O)c1csc(-c2csc(CCNC(=O)CNC(=O)OC(C)(C)C)n2)n1,TGI,MDA-MB-231 breast,> 100 µM
CCOc1ccc(NC(=O)/C=C/c2ccco2)cc1,TGI,MDA-MB-231 breast,> 100 µM
C=CCNC(=S)NC=C(C(N)=O)C(N)=O,TGI,MDA-MB-231 breast,> 100 µM
CC(=O)NC1=C(NCCO)C(=O)c2ccccc2C1=O,TGI,LXFL 529 NSCLC,> 50 µM
same,TGI,DLD-1 colon,> 50 µM
same,TGI,KM20L2 colon,> 50 µM
same,TGI,SNB-78 CNS,> 50 µM
same,TGI,XF 498 CNS,> 50 µM
same,TGI,DMS 273 small cell lung,> 50 µM
same,TGI,M19-MEL melanoma,18.6 µM
O=C1/C(=C/c2ccc([N+](=O)[O-])cc2)Oc2cc(O)ccc21,TGI,MDA-MB-231 breast,73.9 µM
COc1cc(Br)c(C=Nc2cccc3ccc(OS(=O)(=O)c4ccc([N+](=O)[O-])cc4)cc23)cc1OC,TGI,LXFL 529 NSCLC,> 100 µM
same,TGI,DLD-1 colon,> 100 µM
same,TGI,DMS 114 small cell lung,> 100 µM
same,TGI,SNB-78 CNS,> 100 µM
same,TGI,M19-MEL melanoma,> 100 µM
Clc1nc(NC23CC4CC(CC(C4)C2)C3)nc(NC23CC4CC(CC(C4)C2)C3)n1,TGI,MDA-MB-231 breast,> 76.3 µM
COc1ccc2c(c1)C1Oc3ccccc3CC1CO2 (stereo not drawn),TGI,MDA-MB-231 breast,> 100 µM
O=C(O)CNc1ncc2c(n1)-c1ccccc1OC2,TGI,MDA-MB-231 breast,> 100 µM
ON[C@@H]1C=C[C@H](n2cnc3c(NC4CC4)ncnc32)C1,TGI,MDA-MB-231 breast,> 100 µM
CCc1cn(C2CC(CO)C(CO)S2)c(=O)[nH]c1=O (stereo not drawn),TGI,MDA-MB-231 breast,> 100 µM
COc1cccc(-c2nc(N)c(C#N)c3c2CCS(=O)(=O)c2ccc(C)cc2-3)c1,TGI,MDA-MB-231 breast,> 95.3 µM
CCC(=O)NC(NNS(=O)(=O)c1ccc(C)cc1)(C(F)(F)F)C(F)(F)F,TGI,MDA-MB-231 breast,> 100 µM
NC(N)=NS(=O)(=O)c1ccc(NCc2cccc3c(=O)c4ccc(Cl)cc4oc23)cc1,TGI,MDA-MB-231 breast,> 15.6 µM
COc1ccccc1OC/C(N=Cc1cccnc1)=N/NC(=O)c1ccncc1,TGI,MDA-MB-231 breast,> 100 µM
COC(=O)c1c(C)c2c(c(C)c1O)OC(=O)c1c(C)cc(O)c(C=O)c1O2,TGI,MDA-MB-231 breast,> 100 µM
O=C1C[C@@H]2[C@@H](C=CC23CCCC3)N1O,TGI,LXFL 529 NSCLC,> 100 µM
same,TGI,DLD-1 colon,> 100 µM
same,TGI,DMS 114 small cell lung,> 100 µM
same,TGI,KM20L2 colon,> 100 µM
same,TGI,SNB-78 CNS,> 100 µM
same,TGI,HOP-18 NSCLC,> 100 µM
same,TGI,DMS 273 small cell lung,> 100 µM
same,TGI,M19-MEL melanoma,> 100 µM
NC(=S)N/N=C1\CCc2ccccc2C1,TGI,MDA-MB-231 breast,> 100 µM
COc1ccc(-n2c(C)nc3ccc(NC4OC(COC(C)=O)C(OC(C)=O)C(OC(C)=O)C4OC(C)=O)cc3c2=O)cc1 (stereo not drawn),TGI,MDA-MB-231 breast,> 100 µM
CN(C)c1ccc(-c2nc(N)nc3c2CCCC3)cc1,TGI,LXFL 529 NSCLC,> 100 µM
same,TGI,DLD-1 colon,> 100 µM
same,TGI,DMS 114 small cell lung,> 100 µM
same,TGI,KM20L2 colon,> 100 µM
same,TGI,SNB-78 CNS,> 100 µM
same,TGI,XF 498 CNS,60.5 µM
same,TGI,DMS 273 small cell lung,> 100 µM
same,TGI,M19-MEL melanoma,> 100 µM
CC(C)(C)C1CC[C@H](O)[C@H]([C@@H](O)CC2CC(=O)N(c3ccccc3)C(=O)C2)C1 (stereo partly drawn),TGI,MDA-MB-231 breast,> 100 µM
N=c1oc2ccccc2cc1C(=O)Nc1ccccn1,TGI,MDA-MB-231 breast,> 100 µM
COc1cc(C)cc2c1C(=O)C(NC(C)=O)=CC2=O,TGI,MDA-MB-231 breast,> 100 µM
CCOC(=O)c1sc2c(c1OC(=O)c1ccco1)c(=O)n(-c1ccccc1)c(=S)n2-c1ccccc1,TGI,MDA-MB-231 breast,> 100 µM
O=C(NC1C(=O)NC(CCc2ccccc2)NC1=O)OCc1ccccc1 (stereo not drawn),TGI,MDA-MB-231 breast,> 100 µM
COc1cc2c(c(OC)c1OC)[C@@H]1CCCCC[C@@H]1CCC2=O,TGI,LXFL 529 NSCLC,> 100 µM
same,TGI,RXF-631 renal,> 100 µM
same,TGI,DLD-1 colon,> 61 µM
same,TGI,DMS 114 small cell lung,> 57.1 µM
same,TGI,KM20L2 colon,> 100 µM
same,TGI,XF 498 CNS,> 100 µM
same,TGI,HOP-18 NSCLC,> 100 µM
same,TGI,DMS 273 small cell lung,> 100 µM
same,TGI,M19-MEL melanoma,> 100 µM

# — PubChem BioAssay (NCI)
